Values joined by “and” are separate entries in the source; they are usually repeats but may differ in a detail not shown here. Equal entries are not always repeated. Marks after values point to notes of the source that are not given here.
Legend:
[1] = test system: Sprague-Dawley (SD) rats; assay: Starch loading test, postprandial blood glucose; assay type: in vivo, rat; conditions: for BGL AUCt / blood glucose level / increase in blood glucose level: SD rats; for BGL AUCt: starch 2.0 g/kg; for blood glucose level / increase in blood glucose level: starch 2.0 g/kg oral, 30 min after administration
Protocol: (§1) All animal procedures were approved by Institutional Animal Care and Use Committee (IACUC) of the Hannam University (Approval number: HNU2017-003). Four-week-old male SD rats were purchased from Raon Bio Co. (Gyeonggi-do, Korea) and fed a solid diet (Raon Bio Co., Gyeonggi-do, Korea) for one week. The rats were housed in a ventilated room at 23 ± 2 °C with 50 ± 5% relative humidity, and under an alternating 12 h light/dark cycle. […] The blood samples were then taken from the tail after administration and blood glucose levels were measured at 0, 0.5, 1, 2, and 3 h.

[2] = test system: Sprague-Dawley (SD) rats; assay: Sucrose loading test, postprandial blood glucose; assay type: in vivo, rat; conditions: for BGL AUCt / blood glucose level / change (increase) of blood glucose level: SD rats; for BGL AUCt: sucrose 2.0 g/kg; for blood glucose level / change (increase) of blood glucose level: sucrose 2.0 g/kg oral, 30 min after administration
Protocol: as §1

[3] = target: T1, porcine pancreatic α-amylase (Sus scrofa, UniProt P00690); assay: Porcine pancreatic α-amylase inhibition assay; assay type: biochemical; conditions: for IC50: mean ± S.D.
T1 sequence (P00690 16-511): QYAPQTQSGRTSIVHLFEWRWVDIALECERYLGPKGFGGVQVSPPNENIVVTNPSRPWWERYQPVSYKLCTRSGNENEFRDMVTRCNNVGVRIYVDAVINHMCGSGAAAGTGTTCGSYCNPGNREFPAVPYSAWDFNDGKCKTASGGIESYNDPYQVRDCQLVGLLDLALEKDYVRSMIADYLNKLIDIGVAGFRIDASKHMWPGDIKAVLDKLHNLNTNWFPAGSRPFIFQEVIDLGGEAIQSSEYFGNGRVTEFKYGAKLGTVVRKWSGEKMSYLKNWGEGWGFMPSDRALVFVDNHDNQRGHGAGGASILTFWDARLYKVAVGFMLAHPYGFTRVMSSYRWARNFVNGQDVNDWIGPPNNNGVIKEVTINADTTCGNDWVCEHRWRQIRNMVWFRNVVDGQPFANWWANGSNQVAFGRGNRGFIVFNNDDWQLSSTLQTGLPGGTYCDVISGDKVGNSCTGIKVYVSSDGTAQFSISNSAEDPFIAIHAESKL
Protocol: The porcine pancreatic α-amlyase inhibition assay was administered as per the method of Kwon et al. Sample solution (200 μL) and 0.02 M sodium phosphate buffer (pH 6.9 with 0.006 M sodium chloride, 500 μL) containing α-amylase solution (0.5 mg/mL, 5.0 MU/mL) were incubated at 25 °C for 10 min. After preincubation, 500 μL of a 1% starch solution in 0.02 M sodium phosphate buffer was added. The reaction mixture was then incubated at 25 °C for 10 min. The reaction was stopped with 1.0 mL of dinitrosalicylic acid (DNS). The reaction mixture was then incubated in a boiling water bath for 5 min and cooled to room temperature. The reaction mixture at 540 nm with ELISA microplate reader (SUNRISE; Tecan Trading AG, Saltzburg, Austria).

[4] = test system: Rat Intestinal Maltase; assay: Maltase inhibition assay (rat intestinal acetone powder); assay type: biochemical; conditions: for IC50 Rat Intestinal Maltase: mean ± S.D.
Protocol: (§2) The crude enzyme solution prepared from rat intestinal acetone powder Sigma-Aldrich Co. (St. Louise, MO, USA) was used as the small intestinal maltase, sucrose, and glucoamylase, showing specific activities of 0.70, 0.34, and 0.45 units/mL, respectively. Rat intestinal acetone powder (1.0 g) was suspended in 3 mL of 0.1 M sodium phosphate buffer, and the suspension was sonicated 12 times for 30 s at 4 °C. After centrifugation (10,000 × g, 30 min, 4 °C), the resulting supernatant was used for the assay. Maltase, sucrose, and glucoamylase inhibitory activity were assay by modifying a method developed by Dahlqvist. The inhibitory activity was determined by incubating a solution of an enzyme (50 μL), 0.1 M phosphate buffer (pH 7.0, 100 μL) containing 0.4 mg/mL sucrose or maltose or 1% soluble starch, and a solution (50 μL) with various concentrations of sample solution (between 0.05 and 1.0 mM) at 37 °C for 30 min. The reaction mixture was heated in a boiling water bath to stop the reaction for 10 min, and the amount of liberated glucose was then measured by the glucose oxidase. The inhibitory activity was calculated from the formula as follows. Inhibition (%) = (C − T)/C × 100, where C is the enzyme activity without inhibitor, and T is the enzyme activity with inhibitor.

[5] = target: T2, Rat Intestinal SUCRASE (Rattus norvegicus, UniProt P23739); assay: Sucrase inhibition assay (rat intestinal acetone powder); assay type: biochemical; conditions: mean ± S.D.
T2 construct: The crude enzyme solution prepared from rat intestinal acetone powder; tissue Sigma-Aldrich Co; host or cells: rat intestine (acetone powder)
T2 sequence (P23739 whole entry): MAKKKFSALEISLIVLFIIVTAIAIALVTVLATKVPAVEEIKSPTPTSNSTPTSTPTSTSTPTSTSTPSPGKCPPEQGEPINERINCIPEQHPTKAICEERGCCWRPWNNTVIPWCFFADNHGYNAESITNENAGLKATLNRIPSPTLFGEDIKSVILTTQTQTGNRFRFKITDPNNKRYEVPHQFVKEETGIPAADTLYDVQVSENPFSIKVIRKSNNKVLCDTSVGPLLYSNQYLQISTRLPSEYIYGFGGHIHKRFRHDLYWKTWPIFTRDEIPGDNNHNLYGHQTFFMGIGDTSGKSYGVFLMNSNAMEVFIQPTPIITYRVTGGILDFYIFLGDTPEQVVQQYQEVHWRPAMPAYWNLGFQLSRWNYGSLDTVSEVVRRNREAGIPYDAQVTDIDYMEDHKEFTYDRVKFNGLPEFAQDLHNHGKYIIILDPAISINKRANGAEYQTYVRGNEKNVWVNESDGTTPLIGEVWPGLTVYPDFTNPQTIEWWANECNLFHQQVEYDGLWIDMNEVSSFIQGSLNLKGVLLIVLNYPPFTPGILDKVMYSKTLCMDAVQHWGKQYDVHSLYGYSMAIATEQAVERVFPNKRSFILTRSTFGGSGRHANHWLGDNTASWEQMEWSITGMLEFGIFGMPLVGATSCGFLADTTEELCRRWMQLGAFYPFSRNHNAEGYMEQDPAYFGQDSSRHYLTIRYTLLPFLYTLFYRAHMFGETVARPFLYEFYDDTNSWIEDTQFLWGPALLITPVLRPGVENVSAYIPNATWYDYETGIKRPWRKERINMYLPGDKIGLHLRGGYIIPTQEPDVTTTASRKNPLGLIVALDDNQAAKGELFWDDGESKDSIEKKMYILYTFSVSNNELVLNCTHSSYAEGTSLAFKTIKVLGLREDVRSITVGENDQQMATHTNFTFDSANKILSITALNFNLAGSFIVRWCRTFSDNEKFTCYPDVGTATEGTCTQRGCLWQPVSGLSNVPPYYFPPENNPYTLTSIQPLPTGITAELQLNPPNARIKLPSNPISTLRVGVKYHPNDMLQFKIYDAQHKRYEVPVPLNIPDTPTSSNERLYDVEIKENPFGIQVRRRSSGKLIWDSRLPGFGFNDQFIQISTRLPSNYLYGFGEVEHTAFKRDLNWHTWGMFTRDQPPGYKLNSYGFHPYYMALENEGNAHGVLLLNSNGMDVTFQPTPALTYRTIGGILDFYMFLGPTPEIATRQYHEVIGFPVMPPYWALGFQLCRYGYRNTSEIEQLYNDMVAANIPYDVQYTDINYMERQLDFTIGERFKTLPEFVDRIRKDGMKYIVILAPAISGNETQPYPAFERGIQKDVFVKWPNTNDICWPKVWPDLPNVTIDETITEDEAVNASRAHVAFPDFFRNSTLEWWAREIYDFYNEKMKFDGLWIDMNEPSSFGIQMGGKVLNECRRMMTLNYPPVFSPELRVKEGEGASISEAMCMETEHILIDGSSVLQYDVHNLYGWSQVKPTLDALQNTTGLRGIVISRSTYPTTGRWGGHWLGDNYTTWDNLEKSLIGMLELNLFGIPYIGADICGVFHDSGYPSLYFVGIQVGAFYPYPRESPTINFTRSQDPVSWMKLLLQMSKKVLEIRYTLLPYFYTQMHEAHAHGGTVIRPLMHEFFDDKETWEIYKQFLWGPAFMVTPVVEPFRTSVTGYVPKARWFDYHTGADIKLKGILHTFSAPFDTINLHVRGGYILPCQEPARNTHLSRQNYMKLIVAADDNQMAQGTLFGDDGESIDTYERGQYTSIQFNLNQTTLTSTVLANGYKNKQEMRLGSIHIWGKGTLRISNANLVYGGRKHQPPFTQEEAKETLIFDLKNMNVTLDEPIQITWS
Protocol: as §2

[6] = target: Rat Intestinal Glucoamylase (Rattus norvegicus, UniProt D3ZTX4); assay: Glucoamylase inhibition assay (rat intestinal acetone powder); assay type: biochemical; conditions: read-out: glucoamylase inhibition
Protocol: as §2

[7] = test system: rat intestinal α-glucosidase; assay: Rat intestinal α-glucosidase inhibition assay (pNPG); assay type: biochemical; conditions: for IC50 Rat intestinal α-Glucosidase: mean ± S.D.
Protocol: The rat intestinal α-glucosidase assay was administered as per the method of Kwon et al. with slight modification. A total of 1 g of rat-intestinal acetone powder was suspended in 3 mL of 0.1 M sodium phosphate buffer (pH 6.9), and the suspension was sonicated 12 times for 30 s at 4 °C. After centrifugation (10,000× g, 30 min, 4 °C), the resulting supernatant was used for the assay. Sample solution (50 μL) and 0.1 phosphate buffer (pH 6.9, 100 μL) containing α-glucosidase (Sigma-Aldrich, St. Luis, MO, USA) solution (1.0 U/mL) was incubated at 37 °C for 10 min. After pre-incubation, 5 mM p-nitrophenyl-α-D-glucopyranoside solution (50 μL) in 0.1 M phosphate buffer (pH 6.9) was added to each well at timed intervals. The reaction mixtures were incubated at 37 °C for 30 min. Before and after incubation, absorbance was read at 405 nm and compared to a control, which had 50 μL of buffer solution in place of the extract by micro-plate reader (SUNRISE; Tecan Trading AG, Salzburg, Austria). The α-glucosidase inhibitory activity was expressed as inhibition % and was calculated as follows: Inhibition(%)=(ΔA 405 (Control)−ΔA 405(Extract)/ΔA 405 (Control))×100

[8] = two highest tested doses 5 and 7 mg/mL
[9] = starch loading, 30 min, vs pyridoxine-treated group
[10] = starch loading, 30 min, vs starch (control) group
[11] = sucrose loading, 30 min, vs pyridoxine-treated group

Compound | IC50 [3] [mM] | pancreatic α-amylase inhibitory effect [3, 8] | IC50 Rat Intestinal Maltase [4] | IC50 [5] [mM] | blood glucose level [1] [mg/dL] | increase in blood glucose level [1] [mg/dL] | BGL AUCt ([1]; sample 0.1 g/kg oral) | IC50 Rat intestinal α-Glucosidase [7] | blood glucose level [2] [mg/dL] | change (increase) of blood glucose level [2] [mg/dL] | BGL AUCt ([2]; sample 0.1 g/kg oral) | also measured
C[C@H]1O[C@H](O[C@H]2[C@H](O)[C@@H](O)[C@@H](O[C@H]3[C@H](O)[C@@H](O)C(O)O[C@@H]3CO)O[C@@H]2CO)[C@H](O)[C@@H](O)[C@@H]1N[C@H]1C=C(CO)[C@@H](O)[C@H](O)[C@H]1O (stereo partly drawn) [Acarbose, reference compound] |  |  |  |  |  |  |  |  |  |  |  | BGL AUCt ([1]; Acarbose 0.005 g/kg oral): 228.88 ± 13.09 ^a h∙mg/dL; BGL AUCt ([2]; Acarbose 0.005 g/kg oral): 237.94 ± 8.82 ^a h∙mg/dL
Cc1ncc(CO)c(C=O)c1O [Pyridoxal] | 77.3 ± 7.3 | showed α-amylase inhibitory effects | 0.38 mg/mL and 0.37 ± 0.13 ^b mg/mL | 1.91 ± 0.179 | 175.36 ± 10.84 | 79.78 ± 10.84 | 268.27 ± 8.80 ^b h∙mg/dL | 4.14 mg/mL and 4.15 ± 0.17 ^b mg/mL | 164.74 ± 12.06 | 64.88 ± 12.06 | 272.99 ± 5.96 ^b h∙mg/dL | maltase inhibitory activity ([4]; 0.5 mg/mL): 48.39%; maltase inhibitory activity ([4]; 1 mg/mL): 70.10%; maltase inhibitory activity ([4]; 2 mg/mL): 83.29%; inhibition at 200 µg/mL [6]: 42.8%; inhibition at 500 µg/mL [6]: 66.1%; inhibition at 1000 µg/mL [6]: 78.6%; decrease of maximum blood glucose level (Cmax) compared to control ([1]; starch loading test, p < 0.05): ~19%; increase in blood glucose level, less than that of pyridoxine-treated group [1, 9]: 27.91 mg/dL; suppression of blood glucose level compared to pyridoxine-treated group [1, 9]: 26.41 mg/dL; increase in blood glucose level, less than that of starch group [1, 10]: 44.45 mg/dL; suppression of blood glucose level compared to starch group [1, 10]: 41.56 mg/dL; α-glucosidase inhibition ([7]; highest tested dose 7 mg/mL): 79.83%; blood glucose reduction compared to control ([2]; at 30 min, loading test not given): around 18%; decrease of maximum blood glucose level (Cmax) compared to control ([2]; sucrose loading test, p < 0.05): about 18%; blood glucose level, less than that of pyridoxine-treated group [2, 11]: 27.76 mg/dL; change of blood glucose level, lower than pyridoxine-treated group [2, 11]: 27.98 mg/dL; blood glucose level, less than that of sucrose-treated group ([2]; sucrose loading, 30 min, vs sucrose (control) group): 35.89 mg/dL
Cc1ncc(CO)c(CN)c1O [Pyridoxamine] | 88.8 | showed α-amylase inhibitory effects | 1.08 ± 0.10 ^a mg/mL | 2.08 |  |  | 275.10 ± 7.31 ^b h∙mg/dL | 4.85 ± 0.06 ^a mg/mL |  |  | 269.14 ± 13.40 ^b h∙mg/dL | 
Cc1ncc(CO)c(CO)c1O [Pyridoxine] | 137 |  | 0.87 ± 0.08 ^a mg/mL | 1.89 | 201.78 ± 18.99 | 107.69 ± 18.99 | 274.28 ± 15.62 ^b h∙mg/dL | 5.02 ± 0.05 ^a mg/mL | 192.50 ± 10.10 | 92.86 ± 10.10 | 290.64 ± 15.55 ^c h∙mg/dL | pancreatic α-amylase inhibitory effect ([3]; highest tested dose 7 mg/mL): no inhibitory effects

— paper PMC5872703, “The Postprandial Anti-Hyperglycemic Effect of Pyridoxine and Its Derivatives Using In Vitro and In Vivo Animal Models” (Nutrients, 2018)
